Format in all cases: cell-based, human
The test system of assay [1] is T84 cells. The assay is described as follows: Transepithelial resistance (TER) of T84 monolayers. As to conditions: for inhibited TER increases: 100 ng/ml ligand, three days (72 hours) after addition, percent reduction in TER compared to PBS treated cells; for reduced resistance on day 5: ligand added on day 0 and day 2, compared to untreated cells. The method, then: Caco-2 cells were grown close to confluence, and T84 cells were grown to confluence. The apical chambers of transwell plates with 6.5 mm diameter and 3 μm pore size filters were pretreated with 50 μl of 45 μg/ml collagen IV in 60% ethanol 24 hours prior to plating and incubated overnight at room temperature. After reaching confluence, cells were washed with 20 ml PBS and treated with 3.5 ml trypsin-EDTA per 175 cm^2 flask for 20-60 min at 37° C. until cells detached. Cells were resuspended in 16.5 ml media appropriate to the cell type. Each apical chamber was supplemented with 82 μl cell solution. The basolateral chamber was filled with 1 ml propagation media. Filters were fed with new media every two days over the course of experiments.
Caco-2 and T84 cells were allowed to grow on transwells to form monolayers. Monolayer formation was examined every other day by light microscopy as well as by transepithelial resistance (TER) measurements using an EVOM ohmmeter (World Precision Instruments, Sarasota, Fla.). After monolayer formation, cells were treated with 100 ng/ml FGF1, 100 ng/ml FGF2, 100 ng/ml FGF7 or an equivalent volume (10 μl) of PBS. TER measurements were made either after 72 hours or at each of the 30 minutes, 1 hour, 2 hours, 4 hours, 9 hours, 24 hours and 48 hours timepoints. To determine the effects of multiple additions of ligand, FGFs or PBS were added initially and again after 2 days, and TER measurements were made after 0, 2 and 5 days.
To probe the mechanism by which various FGFs induced cell mediated effects, various media treatments were employed. Ammonium tetrathiomolybdate (TM) was added 24 hours prior to the addition of ligands to yield a final concentration of 200 μM, sufficient to prevent the release of FGF1 [3]. Similarly, sodium chlorate, which reduces cell HSPGs and the sulfation of associated HSGAGs, was added 24 hours prior to the addition of ligands to yield a final concentration of 50 mM [33,34]. Antibodies and kinase inhibitors were added immediately prior to ligands. Antibodies to FGF1, FGFR1 and FGFR3 were added at a 1:100 dilution. Kinase inhibitors were added to yield final concentrations of 50 μM LY294002, 20 μM PD98059, 1 μM SB203580. All experiments were performed in triplicate.

The subject of assay [2] is T84 cells. As to the kind of experiment: T84 proliferation assay (whole cell number). As to conditions: for increased whole cell number: 100 ng/ml ligand, three days, vs PBS control. The method, then: Caco-2 cells were grown to just prior to confluence, and T84 cells were grown to confluence. Each flask was washed with 20 ml PBS and treated with 3 ml trypsin-EDTA at 37° C. for 20-60 minutes until cells detached. Cells were centrifuged for 3 minutes at 195×g. The supernatant was aspirated, and the cells were resuspended in 10 ml media. The cell density was measured using an electronic cell counter, and the suspension was diluted to 50,000 cells/ml. The suspension was plated at 1 ml/well into 12-well tissue culture plates. After a 24 hour incubation in a 5% CO2, 37° C. humidified incubator, the media was aspirated, the wells were washed with serum free media, and the cells were supplemented with media containing 0.1% FBS. The wells were then supplemented with 10 μl PBS, 50 mM sodium chlorate, or 200 μM TM, and incubated for 24 hours. Subsequently, cells were supplemented with 100 ng/ml FGF1, FGF2, FGF7, or 10 μl PBS, and incubated for 72 hours. Wells were then washed twice with PBS and treated with 0.5 ml trypsin-EDTA/well and incubated at 37° C. until cells detached. Whole cell number was determined using an electronic cell counter. Data was averaged over three experiments, each consisting of four wells per condition.

Assay [3] concerns Wnt1. As to the kind of experiment: RT-PCR expression in Caco-2 cells after FGF treatment: Wnt1. As to conditions: normalized to PBS treatment, defined as 1.0. The source says:
(§1) Five μg of total RNA was isolated from Caco-2 cells using Trizol reagent (Life Tech, Rockville, Md.) followed by reverse transcription with random hexamers. Specific oligomers were designed based on published sequences in order to detect the expression of specific human Wnt, Fz and syndecan isoforms. Sequences of primer pairs were as follows: Wnt-1: 5′-CACGACCTCGTCTACTTCGAC-3′ (SEQ ID NO: 17) and 5′-ACAGACACTCGTGCAGTACGC-3′ (SEQ ID NO: 18); Wnt-2: 5′-CATGGTGGTACATGAGAGCTAC-3′ (SEQ ID NO: 19) and 5′-GGCAAATACAACTCCAGCTGAG-3′ (SEQ ID NO: 20); Wnt-3: 5′-GAGAGCCTCCCCGTCCACAG-3′ (SEQ ID NO: 21) and 5′-CTGCCAGGAGTGTATTCGCATC-3′ (SEQ ID NO: 22); Wnt-3a: 5′-CAGGAACTACGTGGAGATCATG-3′ (SEQ ID NO: 23) and 5′-CCATCCCACCAAACTCGATGTC-3′ (SEQ ID NO: 24); Fz-1: 5′-GAACTTTCCTCCAACTTCATGGC-3′ (SEQ ID NO: 25) and 5′-CATTTCCATTTTACAGACCGG-3′ (SEQ ID NO: 26); Fz-2: 5′-GGTGAGCCAGCACTGCAAGAG-3′ (SEQ ID NO: 27) and 5′-CCTAAAAGTGAAATGGTTTCGATCG-3′ (SEQ ID NO: 28); Fz-10: 5′-ACACGTCCAACGCCAGCATG-3′ (SEQ ID NO: 29) and 5′-ACGAGTCATGTTGTAGCCGATG-3′ (SEQ ID NO: 30); and Syndecan-1/Sdc-1/CD138: 5′-CTTCACACTCCCCACACAGA-3′ (SEQ ID NO: 31) and 5′-TCCTGTTTGGTGGGCTTCTG-3′ (SEQ ID NO: 32). To control for total cell […], RT-PCR was also performed on β-actin using the primers 5′-GCCAGCTCACCATGGATGATGATAT-3′ (SEQ ID NO: 33) and 5′-GCTTGCTGATCCACATCTGCTGGAA-3′ (SEQ ID NO: 34). PCR was performed using the Advantage-GC cDNA kit from Clontech as per manufacturer's instructions (Palo Alto, Calif.).

Assay [4] concerns Wnt3. The assay is described as follows: RT-PCR expression in Caco-2 cells after FGF treatment: Wnt3. As to conditions: normalized to PBS treatment, defined as 1.0.
Description: as §1

Assay [5] deals with Fz1. The assay is described as follows: RT-PCR expression in Caco-2 cells after FGF treatment: Fz1. As to conditions: normalized to PBS treatment, defined as 1.0.
Description: as §1

Assay [6] deals with Fz2. As to the kind of experiment: RT-PCR expression in Caco-2 cells after FGF treatment: Fz2. As to conditions: normalized to PBS treatment, defined as 1.0.
Description: as §1

For assay [7], the system named is Sdc-1. The assay is described as follows: RT-PCR expression in Caco-2 cells after FGF treatment: Sdc-1. As to conditions: normalized to PBS treatment, defined as 1.0.
Description: as §1

With FGF1: Recombinant human FGF1 from Amgen, the “inhibited TER increases” value in assay [1] was determined as 30.1±1.5%. Moreover, in assay [1] (100 ng/ml, 48 hours), the “reduced TER at 48 hours” value amounted to 22.7±3.2%. Further, the “effect of added agent on FGF-induced reduction in TER” value in assay [1] (agent given before or with 100 ng/ml FGFs (TM 200 μM, sodium chlorate 50 mM, LY294002 50 μM, antibodies 1:100)) was “restored TER reductions”. Besides, the “effect of added agent on proliferative effect of FGF2 and FGF7” value in assay [2] (TM 200 μM, FGF1 added to TM treated cells) is on record as “restored the proliferative capacity of these ligands”. The “proliferation (in words)” value in assay [2] (over three days) is listed as “did not induce the proliferation”. Besides, the “Wnt1 expression (intensity of RT-PCR images)” value (shortened to “Wnt1 expression”) in assay [3] is given as 2.2. The “Wnt3 expression (intensity of RT-PCR images)” value (shortened to “Wnt3 expression”) in assay [4] is 1.3. Besides, the “Fz1 expression (intensity of RT-PCR images)” value (shortened to “Fz1 expression”) in assay [5] stood at 1.5. Further, the “Fz2 expression (intensity of RT-PCR images)” value (from here on “Fz2 expression”) in assay [6] is 0.7. The “Sdc-1 expression (intensity of RT-PCR images)” value (“Sdc-1 expression” for short) in assay [7] worked out at 1.3.
On to “FGF2: Recombinant human FGF2, produced as described”, for which, in assay [1], the “inhibited TER increases” value amounted to 43.4±16.6% and the “reduced resistance on day 5” value was 41.7±8.1%. For the same molecule, the “increased whole cell number” value in assay [2] was 24.8±8.8%. Also, the “Wnt1 expression” value in assay [3] stood at 2.7. The “Wnt3 expression” value in assay [4] is listed as 1.3. For the same molecule, the “Fz1 expression” value in assay [5] came out at 1.1. Further, the “Fz2 expression” value in assay [6] is reported as 1.7. In addition, the “Sdc-1 expression” value in assay [7] is listed as 0.9.

B1: FGF7: Recombinant human FGF7 from Sigma (protein, UniProt P21781 32-194, looked up)
Fibroblast growth factor 7: CNDMTPEQMATNVNCSSPERHTRSYDYMEGGDIRVRRLFCRTQWYLRIDKRGKVKGTQEMKNNYNIMEIRTVAVGIVAIKGVESEFYLAMNKEGKLYAKKECNEDCNFKELILENHYNTYASAKWTHNGGEMFVALNQKGIPVRGKKTKKEQKTAHFLPMAIT
For B1, in assay [1], the “inhibited TER increases” value worked out at 54.6±7.6% and the “reduced resistance on day 5” value was 37.3±3.5%. For the same molecule, the “increased whole cell number” value in assay [2] was 11.4±3.8%. Besides, in assay [3], the “Wnt1 expression” value was 5.1. For the same molecule, the “Wnt3 expression” value in assay [4] amounted to 1.2. Also, the “Fz1 expression” value in assay [5] came to 2.4. For the same molecule, the “Fz2 expression” value in assay [6] came out at 1.6. The “Sdc-1 expression” value in assay [7] was found to be 0.6.

Source of the values: patent US20090156477A1, “Compositions and Methods for Regulating Inflammatory Responses” (Massachusetts Institute of Technology, priority 2005, published 2009).
